Key:
Candida species = assay: Expected efficacy of anti-fungal agents against various fungi (Table 4)
Histoplasma duboisii = settings: expected efficacy
Cryptococcus neoformans = assay: Expected efficacy of anti-fungal agents against various fungi (Table 4)
Coccidioides immitis = settings: expected efficacy
[1] = test system: Trichophyton mentagrophytes; assay: Expected efficacy of anti-fungal agents against various fungi (Table 4)
Aspergillus fumigatus = assay: as above
Blastomyces dermatitidis = assay: as above
Sporothrix schenckii = assay: as above
Trichophyton rubrum = assay: as above
Aspergillus niger = assay: as above
Leishmania donovani = assay: as above
Aspergillus terreus = assay: as above

Measured: Efficacy of various antifungal agents

CCC(C)n1ncn(-c2ccc(N3CCN(c4ccc(OC[C@H]5CO[C@](Cn6cncn6)(c6ccc(Cl)cc6Cl)O5)cc4)CC3)cc2)c1=O (mixture of isomers) [Itraconazole]
not listed: Aspergillus niger | Leishmania donovani | Aspergillus terreus
yes: all other assays above

C[C@@H]1[C@H](O)[C@@H](C)/C=C/C=C/C=C/C=C/C=C/C=C/C=C/[C@H](O[C@@H]2O[C@H](C)[C@@H](O)[C@H](N)[C@@H]2O)C[C@@H]2O[C@](O)(C[C@@H](O)C[C@@H](O)[C@H](O)CC[C@@H](O)C[C@@H](O)CC(=O)O[C@H]1C)C[C@H](O)[C@H]2C(=O)O [Amphotericin]
not listed: Histoplasma duboisii | [1] | Sporothrix schenckii | Trichophyton rubrum
yes: all other assays above

— patent publication US20190255086A1, “Compositions and Methods for Treating an Infection” (CMPD Licensing, LLC, priority 2015, published 2019)
